Entries after “also recorded” stand apart in the source; their conditions may differ.
How the values were obtained:
[1] = system: female Aedes aegypti adults; test: Arm-in-cage cloth-patch in vivo assay (topical repellency); conditions: for Minimum Effective Dose (MED): Mean ± SEM, lowest dosage with five or fewer bites through repellent-treated cloth in 1-minute exposure, at least three volunteers; for topical repellency (in words): initial screening dose of 0.187 mg/cm^2
From the text: Arm-in-Cage Test Cloth-Patch in vivo Assay Pyrethroid-susceptible yellow fever mosquitoes Ae. aegypti (Orlando strain) were reared in the United States Department of Agriculture Mosquito and Fly Research Unit in Gainesville, FL under standard protocols. Three to seven-day-old, starved female mosquitoes were collected using a “draw box” (Posey, K. and Schreck, C. E, 1981, “An airflow apparatus for selecting female mosquitoes for use in repellent and attraction studies” Mosquito News 41: 566-568; US. Department of Agriculture, 1977, Repellent activity of compounds submitted by Walter Reed Army Institute of Research. Part 1. Protection time and minimum effective dosage against Aedes aegypti mosquitoes. Tech. Bull. No. 1549) and were placed in cages at an approximate density 200 mosquitoes/cage. Repellency was determined according to a standard protocol (Bernier, U. R., et al, 2022. “Evaluation and application of repellent-treated uniform/clothing and textiles against vector mosquitoes,” In Advances in Arthropod Repellents (pp. 69-94). Academic Press) and reported as the minimum effective dosage (MED). […] A nylon leg stocking was placed over the arm to prevent direct contact of the repellent-treated cloth patch with the skin. […]. Cloth was treated by placing a rolled bandage (50 cm^2) into each vial containing 1 mL of solution and allowing the patch to absorb the solution completely. The cloth was taped over a 4 by 9-cm opening cut into a vinyl plastic sheet that was draped around the volunteers' arms and taped in place. The cloth was air-dried approximately 15 min before conducting each test. The work reported here is an average of the MED for at least three volunteers. Each volunteer covered his or her arm with a nylon stocking to avoid contact between the skin and the treated cloth and wore a rubber glove to prevent mosquito bites on the hand.
. The minimum effective dose (MED) was determined for each repellent and subject, defined as the lowest concentration that prevents biting). MEDs from each subject were pooled and reported as the average among all replicates/subjects with SEM. A minimum of 3 replicates were performed on at least three human subjects. Written informed consent was obtained for all human subjects used in this study in accordance with IRB protocol #20193320, as approved by the WCG™ IRB.
Statistical Analyses: Student's T-test was used to compare the means between tested compound and DEET and Icaridin in the arm-in-cage in vivo assay and neurophysiological study.

[2] = system: female Aedes aegypti adults; test: High-throughput in vitro screening assay, spatial repellency; type: in vivo; conditions: for RD50 (30 min), half-repellent dose / RD50 (60 min), half-repellent dose: dose per filter paper surface area, 95% CI; for spatial repellency (in words): highest-tested dose of 100 μg/cm^2; for 30-minute RD50 compared with that of DEET: 30 minutes, α = 0.05
From the text: A high-throughput screening method for evaluating spatial repellency and vapor toxicity, described by Jiang S., et al. (2019, “High-Throughput Screening Method for Evaluating Spatial Repellency and Vapour Toxicity to Mosquitoes,” Med. Vet. Entomol. 33: 388-396), was used for this study. As shown in FIG. 2 of Jiang S., et al., assay tubes were constructed by covering 12.5 cm glass tubes on one side with netting secured by a rubber band. The tubes were used in horizontal orientation. Adult mosquitos 2-7 days old were anesthetized on ice for approximately 5 minutes and 16 females were transferred to each tube. The other end of the tube was then closed with netting and a rubber band.
The conical ends of 50 mL centrifuge tubes (Eppendorf, Enfield, Connecticut, USA) were cut at approximately the 10 mL mark to create the end caps for the assay tubes. […] For repellency tests, filter papers for the “untreated” side of the assay tube received pure acetone, whereas filter papers for the “treated” side received acetone solution containing a dissolved compound of interest. For knockdown tests, both filter papers were treated with acetone solution containing one or more compounds of interest. Acetone on both filter papers served as negative controls.
For repellency assays, filter papers were given 10 minutes of evaporation time before being placed into the end caps with forceps (Jiang S., et al. 2019, Supra). For knockdown assays, filter papers were given 5 minutes of evaporation time before being placed into the end caps. […] Assay tubes were capped such that the cap securely overlapped the glass but approximately 5 mm of space was left between the netting and the filter paper so that the mosquitos could not contact the filter paper.
Assay tubes were placed on a white polystyrene platform with wooden sticks glued flatly across it to prevent the tubes from rolling. A straight black line was drawn down the center of the platform and assay tubes were centered on the line at the beginning of the tests. In repellency assays, data were collected at 15, 30, and 60 minutes after the end caps were placed on the assay tubes. Assay tubes were not disturbed for the entire 60 minutes. At each time point, the number of mosquitos that remained on the treated side was visually assessed and recorded. The treated side was alternated with each set of tests. For repellency tests, DEET at a dose of 100 μg/cm^2 served as the positive control.
For the high-throughput in vitro screening assays, analyses were conducted with R version 4.2.2 statistical software (R Core Team, 2022, “R: a language and environment for statistical computing. R foundation for statistical computing,” Vienna, Austria). Concentrations were calculated in terms of filter paper surface area (μg/cm^2) for repellency assays and in terms of assay tube volume (μg/cm^3) for knockdown assays.
Half-repellent (RD50), half-knockdown (KD50), and half-lethal (LD50) doses were calculated from dose-response curves (DRCs) obtained by four-parameter log-logistic equation models generated using the drc package (Dose Response Curve Analyses Software; Ritz C. et al., 2015, “Dose-response analysis using R,” PLOS ONE 10: e0146021). For repellency test analysis, the upper and lower asymptotes for the proportion of mosquitos remaining on the treated side were fixed at 0.5 and 0, respectively. For KD and mortality test analysis, the upper and lower asymptotes for the proportion of mosquitos knocked down or killed were fixed at 1.0 and 0, respectively. To determine whether RD50, KD50, or LD50 values differed across compounds at each timepoint, a joint model assuming different values for each compound and a null model that assumed a single value for all compounds were compared with a likelihood ratio test.

[3] = system: female Aedes aegypti adults; test: High-throughput in vitro screening assay, knockdown and mortality; conditions: for KD50 (60 min), half-knockdown dose / KD50 (30 min), half-knockdown dose: dose per assay tube volume, 95% CI; for knockdown and mortality activities (in words): in vivo

| Structure (SMILES) | Minimum Effective Dose (MED) [1] [mg/cm^2] | topical repellency (in words) [1] | RD50 (30 min), half-repellent dose [2] [μg/cm^2] | RD50 (60 min), half-repellent dose [2] [μg/cm^2] | spatial repellency (in words) [2] | KD50 (60 min), half-knockdown dose [3] [µg/mL] | time at which knockdown began ([3]; FIG. 6A, 6B, 6D) [min] | knockdown and mortality activities (in words) [3] | 30-minute RD50 compared with that of DEET [2] | KD50 (30 min), half-knockdown dose [3] [µg/mL] | MED, times lower than the initial screening dose ([1]; relative to initial screening dose of 0.187 mg/cm^2) [times] |
| --- | --- | --- | --- | --- | --- | --- | --- | --- | --- | --- | --- |
| CCCCOC(=O)c1ccccc1 [nBB, n-butyl benzoate] | 0.148 | demonstrated repellency at doses lower than 0.187 mg/cm^2 on at least one test subject | >100 | >100 | did not show spatial repellencies | 3.09 | 5 | exhibited considerable knockdown and mortality activities | – | – | – |
| CCCCCCOC(=O)c1ccccc1 [nHB, n-hexyl benzoate] | >0.187 | did not show any topical repellencies | – | – | – | 4.72 | – | exhibited considerable knockdown and mortality activities | not significantly different from that of DEET | 7.06 | – |
| COC(=O)c1ccccc1[N+](=O)[O-] [M2NB, methyl 2-nitrobenzoate] | 0.025 | – | – | – | – | >7 | – | – | not significantly different from that of DEET | >7 | – |
| COC(=O)c1ccccc1 [MB, Methyl benzoate] | >0.187 | did not show any topical repellencies | >100 | >100 | did not show spatial repellencies | – | – | – | – | – | – |
| COC(=O)c1ccccc1NC(C)=O [MAcA, methyl N-acetylanthranilate] | 0.101 | demonstrated repellency at doses lower than 0.187 mg/cm^2 on at least one test subject | >100 | >100 | did not show spatial repellencies | – | – | – | – | – | – |
| CCOC(=O)c1ccccc1OC [E2MOB, ethyl 2-methoxybenzoate] | – | did not exhibit topical repellency | 8.83 | – | – | – | – | – | significantly lower than that of DEET | – | – |
| COC(=O)c1ccc(O)cc1 [M4HB, methyl 4-hyhroxylbenzoate] | >0.187 | did not show any topical repellencies | >100 | >100 | did not show spatial repellencies | – | – | – | – | – | – |
| C=CCOC(=O)c1ccccc1N [AA, allyl anthranilate] | 0.039 | – | – | – | – | – | – | – | significantly lower than that of DEET | – | – |
| COC(=O)c1ccccc1C [M2MB, methyl 2-methylbenzoate] | 0.250 | demonstrated repellency at doses lower than 0.187 mg/cm^2 on at least one test subject | >100 | >100 | did not show spatial repellencies | – | – | – | – | – | – |
| COC(=O)c1ccc(Cl)cc1 [M4CB, methyl 4-chlorobenzoate] | >0.187 | did not show any topical repellencies | >100 | >100 | did not show spatial repellencies | – | – | – | – | – | – |
| CCCOC(=O)c1ccccc1NC=O [nPrFA, n-Propyl N-formylanthranilate] | 0.0028 | – | >100 | >100 | did not show any spatial repellencies | – | – | – | – | – | 64 |
| COC(=O)c1ccc(OC)cc1 [M4MOB, methyl 4-methoxybenzoate] | >0.187 | did not show any topical repellencies | >100 | >100 | did not show spatial repellencies | – | – | – | – | – | – |
| O=C(Oc1ccccc1)c1ccccc1 [PhB, phenyl benzoate] | >0.187 | did not show any topical repellencies | >100 | >100 | did not show spatial repellencies | – | – | – | – | – | – |
| CCOC(=O)c1cccc(N)c1 [E3AB, ethyl 3-aminobenzoate] | 0.039 | – | >100 | >100 | did not show any spatial repellencies | – | – | – | – | – | – |
| CCOC(=O)c1ccccc1 [EB, ethyl benzoate] | >0.187 | did not show any topical repellencies | >100 | >100 | did not show spatial repellencies | – | – | – | – | – | – |
| COC(=O)c1ccc(N)cc1 [M4AB, methyl 4-aminobenzoate] | >0.187 | did not show any topical repellencies | >100 | >100 | did not show spatial repellencies | – | – | – | – | – | – |
| CCOC(=O)c1ccc(OC)cc1 [E4MOB, ethyl 4-methoxybenzoate] | >0.187 | did not show any topical repellencies; also recorded: did not exhibit topical repellency | – | – | – | – | – | – | significantly lower than that of DEET | – | – |

From patent publication US20240292836A1, “AGENTS FOR REPELLING, KNOCKING DOWN, AND/OR KILLING BLOOD-SUCKING ARTHROPODS AND USES THEREOF” (The United States of America, as represented by the …, priority 2023, published 2024)
